From patent US4525473A, “Cephalosporins” (Bristol-Myers Company, priority 1983, dated 1985)
≈ marks a conversion by molar mass, not a printed value. Read-outs that look alike come from different tables or passages of the source.

Assays:
Format in all cases: cell-based
PCresistant S. aureus = test: MIC by two-fold serial agar dilution in Mueller-Hinton agar, Gp-Ib; conditions: Gp-Ib, 5 strains, PC-resistant S. aureus; for MIC: Staphylococcus aureus, read-out: Geometric Mean of MIC
Experimental: (§1) In the primary evaluation of the compounds of this invention, the Minimum Inhibitory Concentrations (MIC's) of the compounds were determined by the two-fold serial agar dilution method in Mueller-Hinton agar against 32 strains of test organisms in six groups.
GpIb: PCresistant S. aureus

[1] = test system: Cephalothin(CET)sensitive E. coli (2 strains), K. pneumoniae (1) and P. mirabilis (2); test: MIC by two-fold serial agar dilution in Mueller-Hinton agar, Gn-Ia; conditions: read-out: Geometric Mean of MIC
Experimental: as §1
GnIa: Cephalothin(CET)sensitive E. coli (2 strains), K. pneumoniae (1) an […]

[2] = test system: Penicillin(PC)sensitive S. aureus; test: MIC by two-fold serial agar dilution in Mueller-Hinton agar, Gp-Ia; conditions: for MIC: Staphylococcus aureus
Experimental: as §1
Gp-Ia: Penicillin(PC)sensitive S. aureus

[3] = test system: CETresistant E. coli (3) and K. pneumoniae (2); test: MIC by two-fold serial agar dilution in Mueller-Hinton agar, Gn-Ib; conditions: for MIC: Escherichia coli, read-out: Geometric Mean of MIC
Experimental: as §1
GnIb: CETresistant E. coli (3) and K. pneumoniae (2)

P. aeruginosa = test: MIC by two-fold serial agar dilution in Mueller-Hinton agar, Gn-III; conditions: for MIC: Pseudomonas aeruginosa, read-out: Geometric Mean of MIC
Experimental: as §1

[4] = test system: M. morganii (1), E. cloacae (2) and S. marcescens (2); test: MIC by two-fold serial agar dilution in Mueller-Hinton agar, Gn-II; conditions: for MIC: read-out: Geometric Mean of MIC
Experimental: as §1
GnII: M. morganii (1), E. cloacae (2) and S. marcescens (2)

[5] = Gp-Ia, 5 strains, PC-sensitive S. aureus, read-out: Geometric Mean of MIC
[6] = Gn-III, 7 strains, P. aeruginosa
[7] = Gn-Ia, 5 strains, CET-sensitive
[8] = Gn-Ib, 5 strains, CET-resistant
[9] = Gp-Ia, 5 strains, PC-sensitive S. aureus

| Structure (SMILES) | MIC (PCresistant S. aureus) [µg/mL] | MIC [1] [µg/mL] | MIC [2, 5] [µg/mL] | MIC [3] [µg/mL] | MIC (P. aeruginosa; [6]) [µg/mL] | MIC [4] [µg/mL] | MIC [1, 7] [µg/mL] | MIC ([2]; read-out: Geometric Mean of MIC, Gp-Ia, 5 strains, PC-sensitive S. aureus) [µg/mL] | MIC ([4]; Gn-II, 5 strains) [µg/mL] | MIC [3, 8] [µg/mL] | Geometric Mean of MIC (PCresistant S. aureus) [µg/mL] | Geometric Mean of MIC [2, 9] [µg/mL] | Geometric Mean of MIC [3, 8] [µg/mL] | Geometric Mean of MIC (P. aeruginosa; [6]) [µg/mL] | Geometric Mean of MIC ([4]; Gn-II, 5 strains) [µg/mL] | MIC (P. aeruginosa) [µg/mL] |
| --- | --- | --- | --- | --- | --- | --- | --- | --- | --- | --- | --- | --- | --- | --- | --- | --- |
| CO/N=C(\C(=O)NC1C(=O)N2C(C(=O)[O-])=C(C[N+]3(CC(=O)O)CCCC3)CS[C@H]12)c1csc(N)n1 (stereo partly drawn) [Example 16, 7-[(Z)-2-(2-Aminothiazol-4-yl)-2-methoxyiminoacetamido]-3-[1-(carboxymethyl)pyrrolidinio]methyl-3-cephem-4-carboxylate] | 17 (≈ 32.4 µM) | 0.02 (≈ 0.0381 µM) | 6.5 (≈ 12.4 µM) | 0.23 (≈ 0.438 µM) | 5.1 (≈ 9.72 µM) | 0.14 (≈ 0.267 µM) |  |  |  |  |  |  |  |  |  |  |
| C=CC[N+]1(CC2=C(C(=O)[O-])N3C(=O)C(NC(=O)/C(=N\OC)c4csc(N)n4)[C@H]3SC2)CCCC1 (stereo partly drawn) [Example 21, 7-[(Z)-2-(2-Aminothiazol-4-yl)-2-methoxyiminoacetamido]-3-(N-allylpyrrolidinio)methyl-3-cephem-4-carboxylate] | 2.9 (≈ 5.72 µM) |  |  | 0.15 (≈ 0.296 µM) | 6.5 (≈ 12.8 µM) |  | 0.045 (≈ 0.0888 µM) | 1.1 (≈ 2.17 µM) | 0.18 (≈ 0.355 µM) |  |  |  |  |  |  |  |
| CO/N=C(\C(=O)NC1C(=O)N2C(C(=O)[O-])=C(C[N+]3(C)CCCC3C)CS[C@H]12)c1csc(N)n1 (stereo partly drawn) [Example 19, 7-[(Z)-2-(2-Aminothiazol-4-yl)-2-methoxyiminoacetamido]-3-(1,2-dimethylpyrrolidinio)methyl-3-cephem-4-carboxylate] | 3.8 (≈ 7.68 µM) |  | 1.4 (≈ 2.83 µM) |  | 6 (≈ 12.1 µM) |  | 0.078 (≈ 0.158 µM) |  | 0.27 (≈ 0.546 µM) | 0.27 (≈ 0.546 µM) |  |  |  |  |  |  |
| CO/N=C(\C(=O)NC1C(=O)N2C(C(=O)[O-])=C(C[N+]3(CCO)CCCC3)CSC12)c1csc(N)n1 (stereo not drawn) [Example 17] | 4.1 (≈ 8.03 µM) |  | 1.6 (≈ 3.13 µM) | 0.15 (≈ 0.294 µM) | 4.1 (≈ 8.03 µM) | 0.2 (≈ 0.392 µM) | 0.057 (≈ 0.112 µM) |  |  |  |  |  |  |  |  |  |
| CO/N=C(\C(=O)NC1C(=O)N2C(C(=O)[O-])=C(C[N+]3(C)CCc4scnc4C3)CS[C@H]12)c1csc(N)n1 (stereo partly drawn) [Example 6, 7-[(Z)-2-(2-Aminothiazol-4-yl)-2-methoxyiminoacetamido]-3-(5-methyl-4,5,6,7-tetrahydro-5-thiazolo[4,5-c]pyridinio)methyl-3-cephem-4-carboxylate] | 3.2 (≈ 5.82 µM) | 0.025 (≈ 0.0455 µM) | 0.9 (≈ 1.64 µM) | 0.15 (≈ 0.273 µM) | 4.2 (≈ 7.64 µM) | 0.4 (≈ 0.728 µM) |  |  |  |  |  |  |  |  |  |  |
| CO/N=C(\C(=O)NC1C(=O)N2C(C(=O)[O-])=C(C[N+]3(C)CCCCCC3)CS[C@H]12)c1csc(N)n1 (stereo partly drawn) [Example 7, 7-[(Z)-2-(2-Aminothiazol-4-yl)-2-methoxyiminoacetamido]-3-(1-methylhexahydroazepinio)methyl-3-cephem-4-carboxylate] | 3.2 (≈ 6.29 µM) |  | 0.9 (≈ 1.77 µM) |  | 4.2 (≈ 8.26 µM) |  | 0.05 (≈ 0.0983 µM) |  | 0.15 (≈ 0.295 µM) | 0.13 (≈ 0.256 µM) |  |  |  |  |  |  |
| CO/N=C(\C(=O)NC1C(=O)N2C(C(=O)[O-])=C(C[N+]3(C)CCOC3)CSC12)c1csc(N)n1 (single isomer, unassigned) [12 Isomer B] |  | 0.04 (≈ 0.0829 µM) |  |  |  |  |  |  |  |  | 4.4 | 1.3 | 0.21 | 4.0 | 0.18 |  |
| CO/N=C(\C(=O)NC1C(=O)N2C(C(=O)[O-])=C(C[N+]3(C)CCSC3)CSC12)c1csc(N)n1 (single isomer, unassigned) [13 Isomer B] |  | 0.029 (≈ 0.0582 µM) |  |  |  |  |  |  |  |  | 1.6 | 0.72 | 0.13 |  | 0.13 | 2.5 (≈ 5.01 µM) |
| CO/N=C(\C(=O)NC1C(=O)N2C(C(=O)[O-])=C(C[N+]3(C)CCSC3)CSC12)c1csc(N)n1 (single isomer, unassigned) [13 Isomer A] | 3.1 (≈ 6.22 µM) |  | 0.84 (≈ 1.68 µM) |  | 5.9 (≈ 11.8 µM) |  | 0.046 (≈ 0.0923 µM) |  |  |  |  |  | 0.28 |  | 0.28 |  |
